# Measured values as given in ChEMBL document CHEMBL3085770, “The functional group on (E)-4,4'-disubstituted stilbenes influences toxicity and antioxidative activity in differentiated PC-12 cells” (Bioorg Med Chem Lett, 2013).
# Activity calls are given as the source filed them. No cut-off for these calls is given here.
# Columns and labels:
# [1] = Chemical stability of the compound in PBS buffer at 1 ug/ml after 24 hrs by fluorescence assay in presence of 0.3% H2O2; type: physicochemical
# [2] = Cytotoxicity against rat differentiated PC12 cells assessed as cell viability at <= 10 ug/ml after 15 hrs by MTS assay; type: cell-based; settings: pc-12, 15 h
# [3] = test system: Radical scavenging activity; experiment: Antioxidant activity assessed as DPPH free radical scavenging activity over 30 mins by spectrophotometry; type: functional
# PC-12 = experiment: Antioxidant activity in rat differentiated PC12 cells assessed as inhibition of H2O2-induced cell death after 15 hrs by MTS assay; type: functional, cell-based
Stability [1],SMILES,Activity [2],Activity [3],Activity (PC-12)
Unstable,CC(=O)c1ccc(/C=C/c2ccc(C(C)=O)cc2)cc1,Non-toxic,inactive,
,CC(O)c1ccc(/C=C/c2ccc(C(C)O)cc2)cc1 (stereo not given),Non-toxic,inactive,inactive
,Nc1ccc(/C=C/c2ccc(N)cc2)cc1,Non-toxic,Active,Active
,Oc1ccc(/C=C/c2ccc(O)cc2)cc1,,,Active
,C(=C\c1ccccc1)/c1ccccc1,Non-toxic,inactive,
Unstable,N#Cc1ccc(/C=C/c2ccc(C#N)cc2)cc1,Non-toxic,inactive,
